Earlier results in patent US7208523B2, “Alanine- and glycine-containing therapeutic agent for hepatitis” (Ajinomoto Co., Inc., priority 2000, dated 2007).

Conditions: oral administration of glycine or alanine alone; galactosamine intraabdominal

Structure (SMILES) | inhibition of hepatopathy caused by galactosamine
C[C@H](N)C(=O)O [alanine] | inhibits
NCC(=O)O [glycine] | inhibits
